The record followed here is patent US20040062729A1, “Photoprotective sunscreen compositions comprising 1,3,5-triazine compounds and triesters of benenetricarboxylic acids” (SOCIETE L'OREAL S.A., priority 2001, published 2004).

For the data set the following is noted: 5 g 2,4-bis{[4-2-ethylhexyl-oxy)]-2-hydroxy]phenyl}-6-(4-methoxyphenyl)-1,3,5-triazine in 20 g solvent oil, heated to 83° C., cooled.

Procedure: The solubilization time of 2,4-bis{[4-2-ethylhexyl-oxy)]-2-hydroxy]phenyl}-6-(4-methoxyphenyl)-1,3,5-triazine (screening agent) in various solvents is determined by means of the following test:
at room temperature, 20 g of solvent are added to 5 g of screening agent,
the mixture thus obtained is heated to 83° C. by means of a water bath,
after cooling, the possible presence of crystals is then observed under a microscope, between a slide and glass coverslips, in polarized light.

`CCCCCCCCCCCCCCCC(=O)OCC(CC)CCCC` (stereo not shown) [2-Ethylhexyl palmitate]: the “Presence of crystals, storage in the cold (+4° C.) for 4 days” value (shortened to “Presence of crystals … (+4° C.) for 4 days”) is given as “Crystals” and the “Presence of crystals, storage at room temperature for 4 days” value (from here on “Presence … at room temperature for 4 days”) is “Crystals”.

As to `CCCCCCCCC(CCCCCC)C(=O)O` (stereo not shown) [2-Hexyldecanoic acid], the “Presence of crystals … (+4° C.) for 4 days” value is “Crystals” and the “Presence … at room temperature for 4 days” value is on record as “Crystals”.

Consider `CCCCCCCCCCC(CO)CCCCCCCC` (stereo not shown) [2-Octyldodecanol], for which the “Presence of crystals … (+4° C.) for 4 days” value was “Crystals” and the “Presence … at room temperature for 4 days” value was “Crystals”.

Consider `C[Si]1(C)O[Si](C)(C)O[Si](C)(C)O[Si](C)(C)O[Si](C)(C)O1` [Cyclopentadimethylsiloxane], for which the “Presence of crystals … (+4° C.) for 4 days” value is “Crystals” and the “Presence … at room temperature for 4 days” value is listed as “Crystals”.

With `CCCCC(CC)COC(=O)CCCCC(=O)OCC(CC)CCCC` (stereo not shown) [Di(2-ethylhexyl) adipate], the “Presence of crystals … (+4° C.) for 4 days” value is on record as “Crystals” and the “Presence … at room temperature for 4 days” value is recorded as “Crystals”.

Regarding `CO[C@H]1CO[C@H]2[C@@H]1OC[C@H]2OC` [Dimethyl isosorbide], the “Presence of crystals … (+4° C.) for 4 days” value is given as “Crystals” and the “Presence … at room temperature for 4 days” value is listed as “Crystals”.

As for `CCCCCCCCOC(=O)CC(O)C(=O)OCCCCCCCC` (stereo not shown) [Dioctyl malate], the “Presence of crystals … (+4° C.) for 4 days” value is on record as “Crystals” and the “Presence … at room temperature for 4 days” value is “Crystals”.

In the case of `CC(CC(=O)OCC(COC(=O)CC(C)CC(C)(C)C)OC(=O)CC(C)CC(C)(C)C)CC(C)(C)C` (stereo not shown) [Glyceryl triisononanoate], the “Presence of crystals … (+4° C.) for 4 days” value is listed as “Crystals” and the “Presence … at room temperature for 4 days” value is “Crystals”.

As for `CCCCCCCCC(CO)CCCCCC` (stereo not shown) [Isocetyl alcohol, 2-hexyldecanol], the “Presence of crystals … (+4° C.) for 4 days” value is “Crystals” and the “Presence … at room temperature for 4 days” value is “Crystals”.

For `CC(C)CCCCCCCOC(=O)C(C)(C)C` [Isodecyl neopentanoate], the “Presence of crystals … (+4° C.) for 4 days” value was “Crystals” and the “Presence … at room temperature for 4 days” value is on record as “Crystals”.

Take `CCCCCCCCCCCCCC(C)C` [Isohexadecane]: the “Presence of crystals … (+4° C.) for 4 days” value is reported as “Crystals” and the “Presence … at room temperature for 4 days” value is “Crystals/Cloudy”.

As to `CC(C)CCCCCCOC(=O)CCCCCC(C)C` [Isononyl isononanoate], the “Presence of crystals … (+4° C.) for 4 days” value is listed as “Crystals” and the “Presence … at room temperature for 4 days” value was “Crystals”.

`CCCCC(CC)C(=O)OCC(C)(C)COC(=O)C(CC)CCCC` (stereo not shown) [Neopentyl glycol di-2-ethylhexanoate]: the “Presence of crystals … (+4° C.) for 4 days” value is “Crystals” and the “Presence … at room temperature for 4 days” value is on record as “Crystals”.

Consider `CCCCCCCC/C=C\CCCCCCCCO` [Oleyl alcohol], for which the “Presence of crystals … (+4° C.) for 4 days” value is listed as “Crystals” and the “Presence … at room temperature for 4 days” value was “Crystals”.

Turning to Oxypropylenated butanediol (10 PO), the “Presence of crystals … (+4° C.) for 4 days” value was “Crystals” and the “Presence … at room temperature for 4 days” value is recorded as “Crystals”.

For the molecule Oxypropylenated stearyl alcohol, the “Presence of crystals … (+4° C.) for 4 days” value was “Crystals” and the “Presence … at room temperature for 4 days” value was “Crystals”.

In the case of Tridecyl trimellitate, the “Presence of crystals … (+4° C.) for 4 days” value was “Absence of” and the “Presence … at room temperature for 4 days” value is on record as “Absence of”.
